Common to all, as to type: in vivo
For assay [1], the system named is ducksalad (Heteranthera limosa). Put plainly: Test B flooded paddy test. The note with it: Heteranthera limosa, 360 h, Flood, 250 g ai/ha; visually evaluated after 13 to 15 d; read-out: Plant response rating, Ducksalad (0 to 100 scale where 0 is no effect and 100 is complete control). The essentials: (§1)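 Response scored visually against untreated controls, 0 = no effect and 100 = complete control, 13–15 d after treatment in the greenhouse. Compounds added to paddy water held 3 cm above soil surface. Treatment given at 2-leaf stage.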

For assay [2], the system named is sedge, umbrella (small-flower umbrella sedge, Cyperus difformis). As to the kind of experiment: Test B flooded paddy test. The note with it: Cyperus difformis, 360 h, Flood, 250 g ai/ha; visually evaluated after 13 to 15 d; read-out: Plant response rating, Sedge, Umbrella (0 to 100 scale where 0 is no effect and 100 is complete control). The essentials: as §1
Another assay deals with rice (Oryra sativa). Put plainly: Test B flooded paddy test. The note with it: Oryza sativa, 360 h, Flood, 250 g ai/ha; visually evaluated after 13 to 15 d; read-out: Plant response rating, Rice (0 to 100 scale where 0 is no effect and 100 is complete control). A digest of the protocol: as §1
Assay [3] has as its system barnyardgrass (Echinochloa crus-galli). As to the kind of experiment: Test B flooded paddy test. The note with it: Echinochloa crus-galli, 360 h, Flood, 250 g ai/ha; visually evaluated after 13 to 15 d; read-out: Plant response rating, Barnyardgrass (0 to 100 scale where 0 is no effect and 100 is complete control). A digest of the protocol:
as §1

In assay [4] the test system is ragweed (common ragweed, Ambrosia elatior). As to the kind of experiment: Test A postemergence. The note with it: Ambrosia artemisiifolia, post-emergence, 240 h, Postemergence; for pest or weed control at 125 g/ha: 125 g ai/ha, visual rating about 10 d after treatment, read-out: Ragweed plant response rating (0 to 100 scale); for pest or weed control at 500 g/ha: 500 g ai/ha, visual injury, 0 to 100 scale (0 no effect, 100 complete control), approx. 10 d, read-out: Plant response rating, Ragweed. The essentials:
(§2)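 Visual injury, scored on a 0–100 scale relative to untreated controls, was recorded about 10 d after application. Treatments were a preemergence soil spray over planted seeds or a postemergence spray on plants at the one- to two-leaf stage, 2 to 10 cm tall, all in loam soil–sand blend in the greenhouse.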

The subject of assay [5] is giant foxtail (Setaria faberii). Put plainly: Test A postemergence. The note with it: Setaria faberi, post-emergence, 240 h, Postemergence; for pest or weed control at 125 g/ha: 125 g ai/ha, visual rating about 10 d after treatment, read-out: Foxtail, Giant plant response rating (0 to 100 scale); for pest or weed control at 500 g/ha: 500 g ai/ha, visual injury, 0 to 100 scale (0 no effect, 100 complete control), approx. 10 d, read-out: Plant response rating, Foxtail, Giant. The essentials:
as §2

Assay [6] deals with Galium (catchweed bedstraw, Galium aparine). As to the kind of experiment: Test A postemergence. The note with it: Galium, post-emergence, 240 h, Postemergence; for pest or weed control at 125 g/ha: 125 g ai/ha, visual rating about 10 d after treatment, read-out: Galium plant response rating (0 to 100 scale); for pest or weed control at 500 g/ha: 500 g ai/ha, visual injury, 0 to 100 scale (0 no effect, 100 complete control), approx. 10 d, read-out: Plant response rating, Galium. A digest of the protocol:
as §2

Assay [7] concerns wheat (Triticum aestivum). Put plainly: Test A postemergence. The note with it: Triticum aestivum, post-emergence, 240 h, Postemergence; for plant injury at 125 g/ha: 125 g ai/ha, visual rating about 10 d after treatment, read-out: Wheat plant response rating (0 to 100 scale); for plant injury at 500 g/ha: 500 g ai/ha, visual injury, 0 to 100 scale (0 no effect, 100 complete control), approx. 10 d, read-out: Plant response rating, Wheat. The essentials: as §2

For the next assay, the system named is corn (Zea mays). Put plainly: Test A postemergence. The note with it: Zea mays, post-emergence, 240 h, Postemergence; for plant injury at 125 g/ha: 125 g ai/ha, visual rating about 10 d after treatment, read-out: Corn plant response rating (0 to 100 scale); for Corn plant response rating (crop injury, 0 = no effect, 100 = complete kill) at 500 g/ha: 500 g ai/ha, visual injury, 0 to 100 scale (0 no effect, 100 complete control), approx. 10 d. A digest of the protocol: as §2

In assay [8] the test system is ryegrass, Italian (Italian ryegrass, Lolium multiflorum). As to the kind of experiment: Test A postemergence. The note with it: Lolium multiflorum, post-emergence, 240 h, Postemergence; for pest or weed control at 125 g/ha: 125 g ai/ha, visual rating about 10 d after treatment, read-out: Ryegrass, Italian plant response rating (0 to 100 scale); for pest or weed control at 500 g/ha: 500 g ai/ha, visual injury, 0 to 100 scale (0 no effect, 100 complete control), approx. 10 d, read-out: Plant response rating, Ryegrass, Italian. A digest of the protocol: as §2

In assay [9] the test system is blackgrass (Alopecurus myosuroides). As to the kind of experiment: Test A postemergence. The note with it: Alopecurus myosuroides, post-emergence, 240 h, Postemergence; for pest or weed control at 125 g/ha: 125 g ai/ha, visual rating about 10 d after treatment, read-out: Blackgrass plant response rating (0 to 100 scale); for pest or weed control at 500 g/ha: 500 g ai/ha, visual injury, 0 to 100 scale (0 no effect, 100 complete control), approx. 10 d, read-out: Plant response rating, Blackgrass. The essentials:
as §2

Assay [10] concerns barnyardgrass (Echinochloa crus-galli). Put plainly: Test A postemergence. The note with it: Echinochloa crus-galli, post-emergence, 240 h, Postemergence; for pest or weed control at 125 g/ha: 125 g ai/ha, visual rating about 10 d after treatment, read-out: Barnyardgrass plant response rating (0 to 100 scale, 0 no effect, 100 complete control); for pest or weed control at 500 g/ha: 500 g ai/ha, visual injury, 0 to 100 scale (0 no effect, 100 complete control), approx. 10 d, read-out: Plant response rating, Barnyardgrass. The essentials: as §2

Assay [11] concerns pigweed (Amaranthus retroflexus). As to the kind of experiment: Test A postemergence. The note with it: Amaranthus retroflexus, post-emergence, 240 h, Postemergence; for pest or weed control at 125 g/ha: 125 g ai/ha, visual rating about 10 d after treatment, read-out: Pigweed plant response rating (0 to 100 scale); for pest or weed control at 500 g/ha: 500 g ai/ha, visual injury, 0 to 100 scale (0 no effect, 100 complete control), approx. 10 d, read-out: Plant response rating, Pigweed. A digest of the protocol: as §2

For another assay, the system named is Kochia (Kochia scoparia). Put plainly: Test A postemergence. The note with it: Bassia scoparia, post-emergence, 240 h, Postemergence; for pest or weed control at 125 g/ha: 125 g ai/ha, visual rating about 10 d after treatment, read-out: Kochia plant response rating (0 to 100 scale); for pest or weed control at 500 g/ha: 500 g ai/ha, visual injury, 0 to 100 scale (0 no effect, 100 complete control), approx. 10 d, read-out: Plant response rating, Kochia. The essentials:
as §2

For the compound `CN1CC[C@H](c2cccc(C(F)(F)F)c2)[C@@H](C(=O)Nc2cccc(F)c2F)C1=O` [Compound 1330], the pest or weed control at 250 g/ha in [1] was determined as 90%; in assay [2] it was 0%; with rice (Oryra sativa) it was 0%; in assay [3], 85%. The pest or weed control at 125 g/ha in [4] amounted to 0%; in assay [5], 90%; in assay [6], 30%; in assay [8], 0%; in assay [9], 50%; in assay [10] it was 90%. The pest or weed control at 125 g/ha (in assay [11]; in the assay with Kochia (Kochia scoparia)) was 0% throughout. In addition, the pest or weed control at 500 g/ha is 20% in [4]; 90% in assay [5]; 30% in assay [6]; 20% in assay [8]; 70% in assay [9]; 90% in [10]. Moreover, the pest or weed control at 500 g/ha in [11] came out at 0%; in the assay with Kochia (Kochia scoparia), 20%. Moreover, the plant injury at 125 g/ha in assay [7] was found to be 50%; in the assay with corn (Zea mays), 90%. In addition, the plant injury at 500 g/ha in assay [7] was found to be 70%. For the same compound, the Corn plant response rating (crop injury, 0 = no effect, 100 = complete kill) at 500 g/ha with corn (Zea mays) amounted to 0%.

For `CN1CC[C@H](c2cccc(C(F)(F)F)c2)[C@@H](C(=O)Nc2ccccc2F)C1=O` [Compound 1331], the pest or weed control at 250 g/ha was 20% in [1], 0% in [2], 0% in the assay with rice (Oryra sativa) and 70% in [3]. For the same compound, the pest or weed control at 125 g/ha in [4] came out at 0%; in [5], 90%; in assay [6], 0%; in [8] it was 0%; in assay [9], 20%; in assay [10], 90%. Besides, the pest or weed control at 125 g/ha (in [11]; in the assay with Kochia (Kochia scoparia)) was 0% each time. Moreover, the pest or weed control at 500 g/ha was 0% in assay [4]; 90% in assay [5]; 0% in [6]; 0% in assay [8]; 50% in assay [9]; 90% in assay [10]. In addition, the pest or weed control at 500 g/ha (in [11]; in the assay on Kochia (Kochia scoparia)) was 0% in each case. Besides, the plant injury at 125 g/ha in [7] was found to be 0%; with corn (Zea mays) it was 20%. The plant injury at 500 g/ha in [7] amounted to 50%. Besides, the Corn plant response rating (crop injury, 0 = no effect, 100 = complete kill) at 500 g/ha in the assay with corn (Zea mays) stood at 70%.

Consider `CN1C[C@H](c2cc(C(F)(F)F)cs2)[C@@H](C(=O)Nc2cccc(F)c2F)C1=O` [Compound 1377], for which the pest or weed control at 250 g/ha was found to be 90% in [1], 0% in assay [2], 15% with rice (Oryra sativa) and 60% in [3]. For the same compound, the pest or weed control at 125 g/ha is 20% in assay [4]; 80% in assay [5]; 40% in [6]; 30% in [8]; 20% in [9]; 90% in assay [10]. Also, the pest or weed control at 125 g/ha is 20% in assay [11] and 50% with Kochia (Kochia scoparia). Besides, the pest or weed control at 500 g/ha was found to be 60% in assay [4]; 80% in assay [5]; 60% in assay [6]; 60% in assay [8]; 60% in [9]; 90% in assay [10]. The pest or weed control at 500 g/ha was 40% in [11] and 70% in the assay on Kochia (Kochia scoparia). The plant injury at 125 g/ha in assay [7] stood at 30%; in the assay on corn (Zea mays), 50%. Further, the plant injury at 500 g/ha in assay [7] came out at 60%. In the assay with corn (Zea mays), the Corn plant response rating (crop injury, 0 = no effect, 100 = complete kill) at 500 g/ha worked out at 80%.

For `CN1C[C@H](c2ccc(C(F)F)cc2)[C@@H](C(=O)Nc2cccc(F)c2F)C1=O` [Compound 1383], the pest or weed control at 250 g/ha in assay [1] was 100%; in [2] it was 0%; with rice (Oryra sativa), 25%; in assay [3], 65%. Besides, the pest or weed control at 125 g/ha in assay [4] was determined as 50%; in [5], 90%; in assay [6], 60%; in [8], 40%; in [9], 40%; in assay [10] it was 100%. The pest or weed control at 125 g/ha in assay [11] came out at 40%; in the assay on Kochia (Kochia scoparia) it was 70%. Further, the pest or weed control at 500 g/ha stood at 60% in assay [4]; 90% in assay [5]; 60% in assay [6]; 50% in assay [8]; 50% in assay [9]; 100% in [10]. The pest or weed control at 500 g/ha (in [11]; with Kochia (Kochia scoparia)) was 70% in each case. Besides, the values for the plant injury at 125 g/ha (in [7]; in the assay with corn (Zea mays)) were 60% and 80%, respectively. Moreover, the plant injury at 500 g/ha in [7] was determined as 80%. Besides, the Corn plant response rating (crop injury, 0 = no effect, 100 = complete kill) at 500 g/ha with corn (Zea mays) came out at 90%.

These data come from patent publication US12077503B2, “Substituted cyclic amides and their use as herbicides” (FMC CORPORATION, priority 2015, dated 2024).
